Reference: the supplement of paper PMC10307832

How the values were obtained:
Assay in all cases: relative viability (nuclei count vs DMSO), 5 days (fraction); higher = more cells survive
[1] = compound: CC[C@H](CO)Nc1nc(NCc2ccccc2)c2ncn(C(C)C)c2n1 [Seliciclib]
How it was run: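 Only plates meeting two conditions passed: control CV below 25% and at least one doubling. Lung cancer cell lines, kept overnight at 37 °C in 1536-well plates, were pinned with five library-drug doses (not always all listed) √10 apart on vehicle-anchored plates and grown 5 days without medium change. A one-step fix, permeabilisation and Hoechst stain preceded 4× imaging and MetaXpress nuclear counting. Viability equals treated-well nuclei divided by vehicle-well nuclei, as the median over plates.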

[2] = compound: CC[C@H](CO)Nc1nc(NCc2ccccc2)c2ncn(C(C)C)c2n1 [Seliciclib] + CC1(C)CCC(c2ccc(Cl)cc2)=C(CN2CCN(c3ccc(C(=O)NS(=O)(=O)c4ccc(N[C@H](CCN5CCOCC5)CSc5ccccc5)c(S(=O)(=O)C(F)(F)F)c4)cc3)CC2)C1 [Navitoclax] (partner 0.5 µM)
How it was run: (§1)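 Relative viability is defined as nuclei in treated wells over nuclei in vehicle wells. Duplicate plates were run and medians reported. Lung cancer cell lines in 1536-well plates were dosed by pin tool one day after seeding, with one drug or with a fixed anchor-drug dose plus five library-drug doses (not always all listed) in √10 steps, and nuclei were counted after 5 days.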

[3] = compound: CC[C@H](CO)Nc1nc(NCc2ccccc2)c2ncn(C(C)C)c2n1 [Seliciclib] + COc1cc2c(Oc3ccc(NC(=O)C4(C(=O)Nc5ccc(F)cc5)CC4)cc3F)ccnc2cc1OCCCN1CCOCC1 [Foretinib] (partner 0.25 µM)
How it was run: as §1

[4] = compound: CC[C@H](CO)Nc1nc(NCc2ccccc2)c2ncn(C(C)C)c2n1 [Seliciclib] + CS(=O)(=O)CCNCc1ccc(-c2ccc3ncnc(Nc4ccc(OCc5cccc(F)c5)c(Cl)c4)c3c2)o1 [Lapatinib] (partner 2 µM)
How it was run: as §1

[5] = compound: CC[C@H](CO)Nc1nc(NCc2ccccc2)c2ncn(C(C)C)c2n1 [Seliciclib] + CS(=O)(=O)N1CCN(Cc2cc3nc(-c4cccc5[nH]ncc45)nc(N4CCOCC4)c3s2)CC1 [Pictilisib] (partner 1 µM)
How it was run: as §1

[6] = compound: CC[C@H](CO)Nc1nc(NCc2ccccc2)c2ncn(C(C)C)c2n1 [Seliciclib] + C[C@@H](Oc1cc(-c2cnn(C3CCNCC3)c2)cnc1N)c1c(Cl)ccc(F)c1Cl [Crizotinib] (partner 1 µM)
How it was run: as §1

[7] = compound: CC[C@H](CO)Nc1nc(NCc2ccccc2)c2ncn(C(C)C)c2n1 [Seliciclib] + C[C@]1(O)C[C@@H](c2nc(-c3ccc4ccc(-c5ccccc5)nc4c3)c3c(N)nccn32)C1 [Linsitinib] (partner 1 µM)
How it was run: as §1

[8] = compound: CC[C@H](CO)Nc1nc(NCc2ccccc2)c2ncn(C(C)C)c2n1 [Seliciclib] + Cc1nc(NC(=O)N2CCC[C@H]2C(N)=O)sc1-c1ccnc(C(C)(C)C(F)(F)F)c1 [Alpelisib] (partner 2 µM)
How it was run: as §1

[9] = compound: CC[C@H](CO)Nc1nc(NCc2ccccc2)c2ncn(C(C)C)c2n1 [Seliciclib] + N=C(N)NC(=N)NCCc1ccccc1 [Phenformin] (partner 250 µM)
How it was run: as §1

[10] = compound: CC[C@H](CO)Nc1nc(NCc2ccccc2)c2ncn(C(C)C)c2n1 [Seliciclib] + Nc1ncn([C@H]2C[C@H](O)[C@@H](CO)O2)c(=O)n1 [Decitabine] (partner 2 µM)
How it was run: as §1

[11] = compound: CC[C@H](CO)Nc1nc(NCc2ccccc2)c2ncn(C(C)C)c2n1 [Seliciclib] + O=C(c1cc(Cc2n[nH]c(=O)c3ccccc23)ccc1F)N1CCN(C(=O)C2CC2)CC1 [Olaparib] (partner 8 µM)
How it was run: as §1

[12] = compound: CC[C@H](CO)Nc1nc(NCc2ccccc2)c2ncn(C(C)C)c2n1 [Seliciclib] + CC(=O)Nc1cccc(-n2c(=O)n(C3CC3)c(=O)c3c(Nc4ccc(I)cc4F)n(C)c(=O)c(C)c32)c1 [Trametinib] (partner 0.02 µM)
How it was run: as §1

[13] = compound: CC[C@H](CO)Nc1nc(NCc2ccccc2)c2ncn(C(C)C)c2n1 [Seliciclib] + CC(=O)c1c(C)c2cnc(Nc3ccc(N4CCNCC4)cn3)nc2n(C2CCCC2)c1=O [Palbociclib] (partner 0.5 µM)
How it was run: as §1

[14] = compound: CC[C@H](CO)Nc1nc(NCc2ccccc2)c2ncn(C(C)C)c2n1 [Seliciclib] + CCNC(=O)c1noc(-c2cc(C(C)C)c(O)cc2O)c1-c1ccc(CN2CCOCC2)cc1 [Luminespib] (partner 0.01 µM)
How it was run: as §1

[15] = compound: CC[C@H](CO)Nc1nc(NCc2ccccc2)c2ncn(C(C)C)c2n1 [Seliciclib] + COc1cccc2cc(-c3nc([C@H]4CC[C@H](C(=O)O)CC4)n4ncnc(N)c34)[nH]c12 [OSI-027] (partner 0.5 µM)
How it was run: as §1

[16] = compound: CC[C@H](CO)Nc1nc(NCc2ccccc2)c2ncn(C(C)C)c2n1 [Seliciclib] + Cc1cc(Nc2cc(N3CCN(C)CC3)nc(Sc3ccc(NC(=O)C4CC4)cc3)n2)n[nH]1 [Tozasertib] (partner 0.1 µM)
How it was run: as §1

[17] = compound: CC[C@H](CO)Nc1nc(NCc2ccccc2)c2ncn(C(C)C)c2n1 [Seliciclib] + Cc1nc(Nc2ncc(C(=O)Nc3c(C)cccc3Cl)s2)cc(N2CCN(CCO)CC2)n1 [Dasatinib] (partner 0.075 µM)
How it was run: as §1

[18] = compound: CC[C@H](CO)Nc1nc(NCc2ccccc2)c2ncn(C(C)C)c2n1 [Seliciclib] + NC(=O)Nc1cc(-c2cccc(F)c2)sc1C(=O)N[C@H]1CCCNC1 [AZD7762] (partner 0.2 µM)
How it was run: as §1

[19] = compound: CC[C@H](CO)Nc1nc(NCc2ccccc2)c2ncn(C(C)C)c2n1 [Seliciclib] + Nc1nc2[nH]cc(CCc3ccc(C(=O)N[C@@H](CCC(=O)O)C(=O)O)cc3)c2c(=O)[nH]1 [Pemetrexed] (partner 0.2 µM)
How it was run: as §1

[20] = compound: CC[C@H](CO)Nc1nc(NCc2ccccc2)c2ncn(C(C)C)c2n1 [Seliciclib] + O=C(CCCCCCC(=O)Nc1ccccc1)NO [Vorinostat] (partner 1 µM)
How it was run: as §1

Cell Line: A549
- relative viability ([1]; 0.08 µM): 0.914
- relative viability ([1]; 0.253 µM): 0.985
- relative viability ([1]; 0.8 µM): 0.931
- relative viability ([1]; 2.53 µM): 0.906
- relative viability ([1]; 8 µM): 0.81
- relative viability ([2]; first compound 0.08 µM): 1.08
- relative viability ([2]; first compound 0.253 µM): 1.06
- relative viability ([2]; first compound 0.8 µM): 1.21
- relative viability ([2]; first compound 2.53 µM): 1.19
- relative viability ([2]; first compound 8 µM): 0.925
- relative viability ([3]; first compound 0.08 µM): 0.919
- relative viability ([3]; first compound 0.253 µM): 0.985
- relative viability ([3]; first compound 0.8 µM): 0.895
- relative viability ([3]; first compound 2.53 µM): 0.966
- relative viability ([3]; first compound 8 µM): 0.775
- relative viability ([4]; first compound 0.08 µM): 1
- relative viability ([4]; first compound 0.253 µM): 0.913
- relative viability ([4]; first compound 0.8 µM): 0.991
- relative viability ([4]; first compound 2.53 µM): 0.981
- relative viability ([4]; first compound 8 µM): 0.623
- relative viability ([5]; first compound 0.08 µM): 0.501
- relative viability ([5]; first compound 0.253 µM): 0.595
- relative viability ([5]; first compound 0.8 µM): 0.525
- relative viability ([5]; first compound 2.53 µM): 0.507
- relative viability ([5]; first compound 8 µM): 0.273
- relative viability ([6]; first compound 0.08 µM): 0.674
- relative viability ([6]; first compound 0.253 µM): 0.82
- relative viability ([6]; first compound 0.8 µM): 0.799
- relative viability ([6]; first compound 2.53 µM): 0.809
- relative viability ([6]; first compound 8 µM): 0.591
- relative viability ([7]; first compound 0.08 µM): 0.599
- relative viability ([7]; first compound 0.253 µM): 0.473
- relative viability ([7]; first compound 0.8 µM): 0.434
- relative viability ([7]; first compound 2.53 µM): 0.651
- relative viability ([7]; first compound 8 µM): 0.446
- relative viability ([8]; first compound 0.08 µM): 0.763
- relative viability ([8]; first compound 0.253 µM): 0.67
- relative viability ([8]; first compound 0.8 µM): 0.696
- relative viability ([8]; first compound 2.53 µM): 0.656
- relative viability ([8]; first compound 8 µM): 0.458
- relative viability ([9]; first compound 0.08 µM): 0.154
- relative viability ([9]; first compound 0.8 µM): 0.183
- relative viability ([9]; first compound 2.53 µM): 0.171
- relative viability ([9]; first compound 8 µM): 0.127
- relative viability ([10]; first compound 0.08 µM): 0.279
- relative viability ([10]; first compound 0.253 µM): 0.235
- relative viability ([10]; first compound 0.8 µM): 0.188
- relative viability ([10]; first compound 2.53 µM): 0.286
- relative viability ([10]; first compound 8 µM): 0.248
- relative viability ([11]; first compound 0.08 µM): 0.3
- relative viability ([11]; first compound 0.253 µM): 0.41
- relative viability ([11]; first compound 0.8 µM): 0.251
- relative viability ([11]; first compound 2.53 µM): 0.26
- relative viability ([11]; first compound 8 µM): 0.361

Cell Line: NCI-H522
- relative viability ([1]; 0.08 µM): 0.944
- relative viability ([1]; 0.253 µM): 0.94
- relative viability ([1]; 0.8 µM): 1.05
- relative viability ([1]; 2.53 µM): 0.847
- relative viability ([1]; 8 µM): 0.727
- relative viability ([12]; first compound 0.08 µM): 0.735
- relative viability ([12]; first compound 0.253 µM): 0.672
- relative viability ([12]; first compound 0.8 µM): 0.778
- relative viability ([12]; first compound 2.53 µM): 0.673
- relative viability ([12]; first compound 8 µM): 0.713
- relative viability ([13]; first compound 0.08 µM): 0.913
- relative viability ([13]; first compound 0.253 µM): 1.01
- relative viability ([13]; first compound 0.8 µM): 0.972
- relative viability ([13]; first compound 2.53 µM): 0.909
- relative viability ([13]; first compound 8 µM): 0.87
- relative viability ([14]; first compound 0.08 µM): 1.05
- relative viability ([14]; first compound 0.253 µM): 0.954
- relative viability ([14]; first compound 0.8 µM): 1.15
- relative viability ([14]; first compound 2.53 µM): 1.12
- relative viability ([14]; first compound 8 µM): 0.938
- relative viability ([15]; first compound 0.08 µM): 0.818
- relative viability ([15]; first compound 0.253 µM): 0.63
- relative viability ([15]; first compound 0.8 µM): 0.685
- relative viability ([15]; first compound 2.53 µM): 0.623
- relative viability ([15]; first compound 8 µM): 0.644
- relative viability ([16]; first compound 0.08 µM): 0.711
- relative viability ([16]; first compound 0.253 µM): 0.523
- relative viability ([16]; first compound 0.8 µM): 0.547
- relative viability ([16]; first compound 2.53 µM): 0.49
- relative viability ([16]; first compound 8 µM): 0.614
- relative viability ([17]; first compound 0.08 µM): 1.06
- relative viability ([17]; first compound 0.253 µM): 0.827
- relative viability ([17]; first compound 0.8 µM): 1.05
- relative viability ([17]; first compound 2.53 µM): 0.82
- relative viability ([17]; first compound 8 µM): 0.834
- relative viability ([9]; first compound 0.08 µM): 0.731
- relative viability ([9]; first compound 0.253 µM): 0.655
- relative viability ([9]; first compound 0.8 µM): 0.645
- relative viability ([9]; first compound 2.53 µM): 0.599
- relative viability ([9]; first compound 8 µM): 0.709
- relative viability ([18]; first compound 0.08 µM): 0.862
- relative viability ([18]; first compound 0.253 µM): 0.717
- relative viability ([18]; first compound 0.8 µM): 0.863
- relative viability ([18]; first compound 2.53 µM): 0.952
- relative viability ([18]; first compound 8 µM): 0.873
- relative viability ([19]; first compound 0.08 µM): 1.11
- relative viability ([19]; first compound 0.253 µM): 0.917
- relative viability ([19]; first compound 0.8 µM): 1.18
- relative viability ([19]; first compound 2.53 µM): 1.01
- relative viability ([19]; first compound 8 µM): 0.914
- relative viability ([10]; first compound 0.08 µM): 0.699
- relative viability ([10]; first compound 0.253 µM): 0.545
- relative viability ([10]; first compound 0.8 µM): 0.659
- relative viability ([10]; first compound 2.53 µM): 0.645
- relative viability ([10]; first compound 8 µM): 0.611
- relative viability ([20]; first compound 0.08 µM): 0.854
- relative viability ([20]; first compound 0.253 µM): 0.84
- relative viability ([20]; first compound 0.8 µM): 1.01
- relative viability ([20]; first compound 2.53 µM): 0.881
- relative viability ([20]; first compound 8 µM): 0.744
- relative viability ([11]; first compound 0.08 µM): 0.797
- relative viability ([11]; first compound 0.253 µM): 0.621
- relative viability ([11]; first compound 0.8 µM): 0.533
- relative viability ([11]; first compound 2.53 µM): 0.64
- relative viability ([11]; first compound 8 µM): 0.59
